# Tests used:
# [1] = test system: UO-31; assay: NCI single dose (10 µM) SRB screen; type: cell-based, human; settings: renal cancer, 48 h
# [2] = test system: T-47D; assay: NCI single dose (10 µM) SRB screen; type: cell-based, human; settings: breast cancer, 48 h
# [3] = test system: SK-MEL-2; assay: NCI single dose (10 µM) SRB screen; type: cell-based, human; settings: melanoma, 48 h
# [4] = test system: M14; assay: NCI single dose (10 µM) SRB screen; type: cell-based, human; settings: melanoma, 48 h
# [5] = test system: NCI 60 cancer cell lines; assay: NCI single dose (10 µM) SRB screen, mean over panel; type: cell-based, human; settings: mean over 60 cell lines, 48 h
# [6] = test system: OVCAR-4; assay: NCI single dose (10 µM) SRB screen; type: cell-based, human; settings: ovarian cancer, 48 h
# [7] = test system: SNB-75; assay: NCI single dose (10 µM) SRB screen; type: cell-based, human; settings: CNS cancer, 48 h
# [8] = test system: MOLT-4; assay: NCI single dose (10 µM) SRB screen; type: cell-based, human; settings: leukaemia, 48 h
# [9] = test system: OVCAR-8; assay: NCI single dose (10 µM) SRB screen; type: cell-based, human; settings: ovarian cancer, 48 h
# [10] = test system: KM12; assay: NCI single dose (10 µM) SRB screen; type: cell-based, human; settings: colon cancer, 48 h
# [11] = test system: SF-268; assay: NCI single dose (10 µM) SRB screen; type: cell-based, human; settings: CNS cancer, 48 h
# [12] = test system: A549/ATCC; assay: NCI single dose (10 µM) SRB screen; type: cell-based, human; settings: non-small cell lung cancer, 48 h
# [13] = test system: HOP-62; assay: NCI single dose (10 µM) SRB screen; type: cell-based, human; settings: non-small cell lung cancer, 48 h
# [14] = test system: K-562; assay: NCI single dose (10 µM) SRB screen; type: cell-based, human; settings: leukaemia, 48 h
# [15] = test system: ACHN; assay: NCI single dose (10 µM) SRB screen; type: cell-based, human; settings: renal cancer, 48 h
# [16] = test system: OVCAR-5; assay: NCI single dose (10 µM) SRB screen; type: cell-based, human; settings: ovarian cancer, 48 h
# [17] = test system: NCI-H460; assay: NCI single dose (10 µM) SRB screen; type: cell-based, human; settings: non-small cell lung cancer, 48 h
# [18] = test system: MALME-3M; assay: NCI single dose (10 µM) SRB screen; type: cell-based, human; settings: melanoma, 48 h
# [19] = test system: HT29; assay: NCI single dose (10 µM) SRB screen; type: cell-based, human; settings: colon cancer, 48 h
# [20] = test system: OVCAR-3; assay: NCI single dose (10 µM) SRB screen; type: cell-based, human; settings: ovarian cancer, 48 h
# [21] = test system: HOP-92; assay: NCI single dose (10 µM) SRB screen; type: cell-based, human; settings: non-small cell lung cancer, 48 h
# [22] = test system: SW-620; assay: NCI single dose (10 µM) SRB screen; type: cell-based, human; settings: colon cancer, 48 h
# [23] = test system: HL-60(TB); assay: NCI single dose (10 µM) SRB screen; type: cell-based, human; settings: leukaemia, 48 h
# [24] = test system: Candida albicans; assay: Agar well diffusion method; settings: relative to clotrimazole
# [25] = test system: NCI/ADR-RES; assay: NCI single dose (10 µM) SRB screen; type: cell-based, human; settings: ovarian cancer, 48 h
# [26] = test system: A498; assay: NCI single dose (10 µM) SRB screen; type: cell-based, human; settings: renal cancer, 48 h
# [27] = test system: RXF 393; assay: NCI single dose (10 µM) SRB screen; type: cell-based, human; settings: renal cancer, 48 h
# [28] = test system: BT-549; assay: NCI single dose (10 µM) SRB screen; type: cell-based, human; settings: breast cancer, 48 h
# [29] = test system: Escherichia coli; assay: Agar well diffusion method; settings: relative to ciprofloxacin
# [30] = test system: EKVX; assay: NCI single dose (10 µM) SRB screen; type: cell-based, human; settings: non-small cell lung cancer, 48 h
# [31] = test system: HCT-116; assay: NCI single dose (10 µM) SRB screen; type: cell-based, human; settings: colon cancer, 48 h
# [32] = test system: Staphylococcus aureus; assay: Agar well diffusion method; settings: relative to ciprofloxacin
# [33] = test system: SK-MEL-5; assay: NCI single dose (10 µM) SRB screen; type: cell-based, human; settings: melanoma, 48 h
# [34] = test system: SF-295; assay: NCI single dose (10 µM) SRB screen; type: cell-based, human; settings: CNS cancer, 48 h
# [35] = test system: PC-3; assay: NCI single dose (10 µM) SRB screen; type: cell-based, human; settings: prostate cancer, 48 h
# [36] = test system: 786-0; assay: NCI single dose (10 µM) SRB screen; type: cell-based, human; settings: renal cancer, 48 h
# [37] = test system: NCI-H23; assay: NCI single dose (10 µM) SRB screen; type: cell-based, human; settings: non-small cell lung cancer, 48 h
# [38] = test system: CAKI-1; assay: NCI single dose (10 µM) SRB screen; type: cell-based, human; settings: renal cancer, 48 h
# [39] = test system: MDA-MB-435; assay: NCI single dose (10 µM) SRB screen; type: cell-based, human; settings: melanoma, 48 h
# [40] = test system: LOX IMVI; assay: NCI single dose (10 µM) SRB screen; type: cell-based, human; settings: melanoma, 48 h
# [41] = test system: UACC-62; assay: NCI single dose (10 µM) SRB screen; type: cell-based, human; settings: melanoma, 48 h
# [42] = test system: HCC-2998; assay: NCI single dose (10 µM) SRB screen; type: cell-based, human; settings: colon cancer, 48 h
# [43] = test system: IGROV1; assay: NCI single dose (10 µM) SRB screen; type: cell-based, human; settings: ovarian cancer, 48 h
# [44] = test system: NCI-H322M; assay: NCI single dose (10 µM) SRB screen; type: cell-based; settings: non-small cell lung cancer, 48 h
# [45] = test system: RPMI-8226; assay: NCI single dose (10 µM) SRB screen; type: cell-based, human; settings: leukaemia, 48 h
# [46] = test system: Bacillus subtilis; assay: Agar well diffusion method; settings: relative to ciprofloxacin
# [47] = test system: TK-10; assay: NCI single dose (10 µM) SRB screen; type: cell-based, human; settings: renal cancer, 48 h
# [48] = test system: DU-145; assay: NCI single dose (10 µM) SRB screen; type: cell-based, human; settings: prostate cancer, 48 h
# [49] = test system: MDA-MB-231; assay: NCI single dose (10 µM) SRB screen; type: cell-based, human; settings: breast cancer, 48 h
# [50] = test system: MCF7; assay: NCI single dose (10 µM) SRB screen; type: cell-based, human; settings: breast cancer, 48 h
# [51] = test system: NCI-H226; assay: NCI single dose (10 µM) SRB screen; type: cell-based, human; settings: non-small cell lung cancer, 48 h
# [52] = test system: NCI-H522; assay: NCI single dose (10 µM) SRB screen; type: cell-based, human; settings: non-small cell lung cancer, 48 h
# [53] = test system: SK-OV-3; assay: NCI single dose (10 µM) SRB screen; type: cell-based, human; settings: ovarian cancer, 48 h
# [54] = test system: MDA-MB-468; assay: NCI single dose (10 µM) SRB screen; type: cell-based, human; settings: breast cancer, 48 h
# [55] = test system: U251; assay: NCI single dose (10 µM) SRB screen; type: cell-based, human; settings: CNS cancer, 48 h
# [56] = test system: Aspergillus flavus; assay: Agar well diffusion method; settings: relative to clotrimazole
# [57] = test system: HS578T; assay: NCI single dose (10 µM) SRB screen; type: cell-based, human; settings: breast cancer, 48 h
# [58] = test system: Pseudomonas aeruginosa; assay: Agar well diffusion method; settings: relative to ciprofloxacin
# [59] = test system: SN12C; assay: NCI single dose (10 µM) SRB screen; type: cell-based, human; settings: renal cancer, 48 h
# [60] = test system: SF-539; assay: NCI single dose (10 µM) SRB screen; type: cell-based, human; settings: CNS cancer, 48 h
# [61] = test system: COLO 205; assay: NCI single dose (10 µM) SRB screen; type: cell-based, human; settings: colon cancer, 48 h
# [62] = test system: CCRF-CEM; assay: NCI single dose (10 µM) SRB screen; type: cell-based, human; settings: leukaemia, 48 h
# [63] = test system: SR; assay: NCI single dose (10 µM) SRB screen; type: cell-based, human; settings: leukaemia, 48 h
# [64] = test system: SK-MEL-28; assay: NCI single dose (10 µM) SRB screen; type: cell-based, human; settings: melanoma, 48 h
# [65] = test system: HCT-15; assay: NCI single dose (10 µM) SRB screen; type: cell-based, human; settings: colon cancer, 48 h
# [66] = test system: UACC-257; assay: NCI single dose (10 µM) SRB screen; type: cell-based, human; settings: melanoma, 48 h
# [67] = test system: SNB-19; assay: NCI single dose (10 µM) SRB screen; type: cell-based, human; settings: CNS cancer, 48 h
# [68] = biological target: EGFR (Homo sapiens, UniProt P00533); parameters: method as in PMID 34146919; settings: introduction; cited from earlier work
# [69] = biological target: BTK (Homo sapiens, UniProt Q06187); parameters: method as in PMID 34146919; settings: introduction; cited from earlier work
# [70] = biological target: HER-2 (Homo sapiens, UniProt P04626); parameters: method as in PMID 34146919; settings: introduction; cited from earlier work
# Sequence of HER-2 (P04626 23-1255): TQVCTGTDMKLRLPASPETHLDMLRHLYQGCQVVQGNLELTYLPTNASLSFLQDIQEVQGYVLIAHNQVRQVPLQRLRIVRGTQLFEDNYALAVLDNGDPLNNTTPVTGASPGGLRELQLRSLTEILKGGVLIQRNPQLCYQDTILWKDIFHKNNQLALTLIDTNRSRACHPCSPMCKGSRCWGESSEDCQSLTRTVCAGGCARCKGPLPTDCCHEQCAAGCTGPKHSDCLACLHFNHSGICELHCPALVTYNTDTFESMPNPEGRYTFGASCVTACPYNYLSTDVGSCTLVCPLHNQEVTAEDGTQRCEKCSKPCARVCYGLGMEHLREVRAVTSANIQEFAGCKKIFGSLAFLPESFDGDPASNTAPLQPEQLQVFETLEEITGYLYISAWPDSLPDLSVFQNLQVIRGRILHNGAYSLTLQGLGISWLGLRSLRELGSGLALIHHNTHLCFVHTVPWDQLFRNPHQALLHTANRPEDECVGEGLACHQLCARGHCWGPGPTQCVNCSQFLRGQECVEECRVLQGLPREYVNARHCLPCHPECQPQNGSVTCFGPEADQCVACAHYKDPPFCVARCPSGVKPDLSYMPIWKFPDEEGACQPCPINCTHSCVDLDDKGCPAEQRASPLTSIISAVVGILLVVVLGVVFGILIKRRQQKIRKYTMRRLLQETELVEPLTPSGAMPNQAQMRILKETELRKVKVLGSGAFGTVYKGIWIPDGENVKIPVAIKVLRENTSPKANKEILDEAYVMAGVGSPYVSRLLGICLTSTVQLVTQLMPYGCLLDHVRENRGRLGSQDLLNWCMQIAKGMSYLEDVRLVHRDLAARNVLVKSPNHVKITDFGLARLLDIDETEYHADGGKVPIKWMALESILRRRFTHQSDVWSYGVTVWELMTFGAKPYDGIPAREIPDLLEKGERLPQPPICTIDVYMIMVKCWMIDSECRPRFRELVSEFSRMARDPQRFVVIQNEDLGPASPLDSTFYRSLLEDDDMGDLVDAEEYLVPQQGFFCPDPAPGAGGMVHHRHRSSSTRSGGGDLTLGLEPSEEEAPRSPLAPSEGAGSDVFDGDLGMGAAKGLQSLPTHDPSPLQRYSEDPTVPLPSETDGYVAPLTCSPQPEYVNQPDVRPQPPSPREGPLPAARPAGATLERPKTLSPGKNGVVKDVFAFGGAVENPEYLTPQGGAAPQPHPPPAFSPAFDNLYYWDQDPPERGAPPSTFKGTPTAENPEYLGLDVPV
# Sequence of EGFR (P00533 25-1210): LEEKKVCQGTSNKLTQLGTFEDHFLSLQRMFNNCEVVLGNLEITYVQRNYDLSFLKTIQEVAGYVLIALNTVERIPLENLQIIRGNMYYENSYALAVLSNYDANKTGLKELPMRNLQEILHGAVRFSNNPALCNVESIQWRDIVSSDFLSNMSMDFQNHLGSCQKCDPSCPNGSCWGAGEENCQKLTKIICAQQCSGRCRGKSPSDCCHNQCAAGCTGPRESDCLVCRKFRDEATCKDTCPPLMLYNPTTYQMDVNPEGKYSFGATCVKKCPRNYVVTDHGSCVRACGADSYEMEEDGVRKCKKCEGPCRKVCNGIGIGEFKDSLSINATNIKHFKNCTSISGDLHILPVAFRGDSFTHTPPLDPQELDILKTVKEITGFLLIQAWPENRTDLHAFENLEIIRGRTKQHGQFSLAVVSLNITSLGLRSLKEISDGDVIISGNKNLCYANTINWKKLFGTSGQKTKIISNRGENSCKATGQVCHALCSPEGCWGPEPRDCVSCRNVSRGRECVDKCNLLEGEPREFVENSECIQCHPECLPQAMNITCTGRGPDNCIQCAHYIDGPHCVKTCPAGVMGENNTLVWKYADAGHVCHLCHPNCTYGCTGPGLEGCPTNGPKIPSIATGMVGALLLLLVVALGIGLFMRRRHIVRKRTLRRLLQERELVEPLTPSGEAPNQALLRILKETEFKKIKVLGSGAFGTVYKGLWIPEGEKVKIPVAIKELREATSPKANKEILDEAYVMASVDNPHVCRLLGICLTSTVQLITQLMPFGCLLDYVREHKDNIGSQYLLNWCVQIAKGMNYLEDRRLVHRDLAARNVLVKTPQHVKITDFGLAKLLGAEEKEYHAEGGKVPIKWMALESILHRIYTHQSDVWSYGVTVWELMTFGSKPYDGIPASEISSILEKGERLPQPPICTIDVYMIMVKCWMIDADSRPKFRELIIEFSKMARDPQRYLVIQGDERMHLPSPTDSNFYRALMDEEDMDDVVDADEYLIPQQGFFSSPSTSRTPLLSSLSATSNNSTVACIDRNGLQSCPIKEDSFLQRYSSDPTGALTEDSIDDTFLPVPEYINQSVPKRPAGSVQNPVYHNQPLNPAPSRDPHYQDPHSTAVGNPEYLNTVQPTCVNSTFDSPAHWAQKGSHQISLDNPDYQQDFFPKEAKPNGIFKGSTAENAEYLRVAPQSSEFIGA
# Sequence of BTK (Q06187 whole entry): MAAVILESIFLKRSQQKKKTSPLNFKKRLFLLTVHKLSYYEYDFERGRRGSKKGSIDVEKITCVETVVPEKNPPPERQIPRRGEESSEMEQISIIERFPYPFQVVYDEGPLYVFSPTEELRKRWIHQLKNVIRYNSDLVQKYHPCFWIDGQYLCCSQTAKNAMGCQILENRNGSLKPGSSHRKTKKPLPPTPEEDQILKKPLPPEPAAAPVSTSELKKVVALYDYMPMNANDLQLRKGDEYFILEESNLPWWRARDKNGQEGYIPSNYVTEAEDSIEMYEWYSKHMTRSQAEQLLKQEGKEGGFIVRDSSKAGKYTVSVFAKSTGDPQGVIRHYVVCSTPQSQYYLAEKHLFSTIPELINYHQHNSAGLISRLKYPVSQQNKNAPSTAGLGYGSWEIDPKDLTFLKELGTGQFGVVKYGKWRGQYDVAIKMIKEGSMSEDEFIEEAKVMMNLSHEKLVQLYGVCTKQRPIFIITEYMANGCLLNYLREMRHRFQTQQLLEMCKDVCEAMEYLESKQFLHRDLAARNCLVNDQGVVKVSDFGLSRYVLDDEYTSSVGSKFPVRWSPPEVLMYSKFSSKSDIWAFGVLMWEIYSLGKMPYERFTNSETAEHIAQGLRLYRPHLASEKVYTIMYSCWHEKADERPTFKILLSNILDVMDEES
smiles,measurement,setting,value
"CC1=C(C(=O)OC(C)(C)C)C(c2cccc(C#N)c2)C(C(=O)OC(C)(C)C)=C(C)N1 [Compound 1e, Di-tert-butyl 4-(3-cyanophenyl)-2,6-dimethyl-1,4-dihydropyridine-3,5-dicarboxylate]",GI% UO-31,[1],25%
same,GI% T-47D,[2],53%
same,GI% SK-MEL-2,[3],– (Only GI% ≥ 10 are shown)
same,GI% M14,[4],– (Only GI% ≥ 10 are shown)
same,Mean GI%,[5],14%
same,GI% OVCAR-4,[6],– (Only GI% ≥ 10 are shown)
same,GI% SNB-75,[7],38%
same,GI% MOLT-4,[8],39%
same,GI% OVCAR-8,[9],– (Only GI% ≥ 10 are shown)
same,GI% KM12,[10],11%
same,GI% SF-268,[11],11%
same,GI% A549/ATCC,[12],20%
same,GI% HOP-62,[13],– (Only GI% ≥ 10 are shown)
same,GI% K-562,[14],34%
same,GI% ACHN,[15],14%
same,GI% OVCAR-5,[16],– (Only GI% ≥ 10 are shown)
same,melting point,,166 to 168 °C
same,GI% NCI-H460,[17],– (Only GI% ≥ 10 are shown)
same,GI% MALME-3M,[18],– (Only GI% ≥ 10 are shown)
same,GI% HT29,[19],13%
same,GI% OVCAR-3,[20],– (Only GI% ≥ 10 are shown)
same,GI% HOP-92,[21],30%
same,GI% SW-620,[22],– (Only GI% ≥ 10 are shown)
same,GI% HL-60(TB),[23],41%
same,"% activity index, C. albicans",[24],– (Values below 25 are of limited value and not shown as they refer either to inactive or non-diffusing compounds)
same,GI% NCI/ADR-RES,[25],– (Only GI% ≥ 10 are shown)
same,GI% A498,[26],– (Only GI% ≥ 10 are shown)
same,GI% RXF 393,[27],33%
same,GI% BT-549,[28],– (Only GI% ≥ 10 are shown)
same,"% activity index, E. coli",[29],– (Values below 25 are of limited value and not shown as they refer either to inactive or non-diffusing compounds)
same,GI% EKVX,[30],20%
same,GI% HCT-116,[31],35%
same,"% activity index, S. aureus",[32],– (Values below 25 are of limited value and not shown as they refer either to inactive or non-diffusing compounds)
same,GI% SK-MEL-5,[33],14%
same,GI% SF-295,[34],27%
same,GI% PC-3,[35],48%
same,GI% 786-0,[36],18%
same,GI% NCI-H23,[37],13%
same,GI% CAKI-1,[38],32%
same,GI% MDA-MB-435,[39],– (Only GI% ≥ 10 are shown)
same,GI% LOX IMVI,[40],10%
same,GI% UACC-62,[41],26%
same,GI% HCC-2998,[42],– (Only GI% ≥ 10 are shown)
same,GI% IGROV1,[43],– (Only GI% ≥ 10 are shown)
same,GI% NCI-H322M,[44],– (Only GI% ≥ 10 are shown)
same,GI% RPMI-8226,[45],39%
same,"% activity index, B. subtilis",[46],– (Values below 25 are of limited value and not shown as they refer either to inactive or non-diffusing compounds)
same,GI% TK-10,[47],– (Only GI% ≥ 10 are shown)
same,GI% DU-145,[48],– (Only GI% ≥ 10 are shown)
same,GI% MDA-MB-231,[49],14%
same,GI% MCF7,[50],34%
same,GI% NCI-H226,[51],22%
same,GI% NCI-H522,[52],17%
same,GI% SK-OV-3,[53],– (Only GI% ≥ 10 are shown)
same,GI% MDA-MB-468,[54],27%
same,GI% U251,[55],– (Only GI% ≥ 10 are shown)
same,"% activity index, A. flavus",[56],– (Values below 25 are of limited value and not shown as they refer either to inactive or non-diffusing compounds)
same,GI% HS578T,[57],– (Only GI% ≥ 10 are shown)
same,"% activity index, P. aeruginosa",[58],– (Values below 25 are of limited value and not shown as they refer either to inactive or non-diffusing compounds)
same,GI% SN12C,[59],– (Only GI% ≥ 10 are shown)
same,GI% SF-539,[60],10%
same,GI% COLO 205,[61],– (Only GI% ≥ 10 are shown)
same,GI% CCRF-CEM,[62],16%
same,GI% SR,[63],42%
same,GI% SK-MEL-28,[64],– (Only GI% ≥ 10 are shown)
same,GI% HCT-15,[65],19%
same,GI% UACC-257,[66],16%
same,GI% SNB-19,[67],– (Only GI% ≥ 10 are shown)
CCOC(=O)C1=C(C)NC(C)=C(C(=O)OCC)C1c1ccc2c(c1)Cc1ccccc1-2 [Compound II],IC50,[68],71.8 nM
same,IC50,[69],68.8 nM
same,IC50,[70],84.5 nM
